The test system of data set [1] is B16. Description: Inhibition of melanin production in mouse B16 cells at 100 uM after 48 hrs by spectrophotometry relative to control. As to conditions: B16, 48 h. Format: functional.
Data set [2] deals with B16. Description: Inhibition of melanin production in mouse B16 cells at 0.1 uM after 48 hrs by spectrophotometry relative to control. The data set is classed as functional. The settings on record: B16, 48 h.
Data set [3] is described as follows: Cytotoxicity against mouse B16 cells assessed as viability at 0.1 uM after 48 hrs by viacount reagent staining technique relative to control. The data set is classed as cell-based. The settings on record: read-out: Activity.

3 compounds from ChEMBL document CHEMBL1152346, “Hirseins A and B, daphnane diterpenoids from Thymelaea hirsuta that inhibit melanogenesis in B16 melanoma cells” (J Nat Prod, 2009) can be followed below.

SMILES strings stand for the structures.

In the case of `OC[C@H]1O[C@@H](Oc2ccc(O)cc2)[C@H](O)[C@@H](O)[C@@H]1O` [ARBUTIN], the inhibition at 100 µM in the data set with B16 [1] was 33%. In the data set on B16 [2], `C=C(C)[C@@]12OC3(/C=C/CCCCC)O[C@@H]1[C@@H]1[C@@H]4O[C@]4(CO)[C@@H](O)[C@]4(O)C(=O)C(C)=C[C@H]4[C@@]1(O3)[C@H](C)[C@H]2OC(=O)/C=C/c1ccccc1` [HIRSEIN A] registered an inhibition at 0.1 µM of 37%. Further, the viability at 48 h, 0.1 µM in data set [3] turned out to be 99.3%.

In turn, `C=C(C)[C@@]12OC3(CCCCCCCCC)O[C@@H]1[C@@H]1[C@@H]4O[C@]4(CO)[C@@H](O)[C@]4(O)C(=O)C(C)=C[C@H]4[C@@]1(O3)[C@H](C)[C@H]2OC(=O)/C=C/c1ccc(O)cc1` [HIRSEIN B] had an inhibition at 0.1 µM in the data set on B16 [2] of 26%. Also, the viability at 48 h, 0.1 µM in data set [3] is 97.5%.

A word on the inhibition: it is the drop in the measured response relative to a control, in per cent. Lower therefore signals little suppression.
